Test results taken from US9758561B2 (priority 2014, dated 2017).
Converted amounts (≈) assume the structure as drawn. Read-outs that look alike come from different tables or passages of the source.

Legend:
[1] = Stability testing in solution, 7 days at 40° C. (HPLC-UV); format: physicochemical; conditions: for Stability pH 4.5: pH 4.5, 7 days at 40° C. in solution; for Stability pH 7.4: pH 7.4, 7 days at 40° C. in solution
Procedure: After that time course, the sample was centrifuged for 20 min at 4500 rpm and 0.2 μL of the supernatant were analysed with HPLC-UV.
For determination of the amount of the remaining peptide, the peak areas of the target compound at t0 and t7 were compared, resulting in “% remaining peptide”, following the equation % remaining peptide=[(peak area peptide t7)×100]/peak area peptide t0.
The stability is expressed as “% remaining peptide”.

[2] = system: female diet-induced obese (DIO) C57BL/6 mice; experiment: Chronic effect on body weight and body fat in female DIO C57BL/6 mice; format: in vivo; conditions: 50 μg/kg bid s.c., 4 weeks; for Body fat change: NMR; for Body fat change / Overall weight change: mean ± SEM
Procedure: (§1) C57BL/6 Harlan mice are housed in groups in a specific pathogen-free barrier facility on a 12 h light/dark cycle with free access to water and standard or high-fat diet. After prefeeding on high-fat diet, mice are stratified to treatment groups (n=8), so that each group has similar mean body weight. An age-matched group with ad-libitum access to standard chow is included as standard control group. Before the experiment, mice are subcutaneously (s.c.) injected with vehicle solution and weighed for 3 days to acclimate them to the procedures.
Body weight is recorded daily. Two days before start of treatment and on day 26, total fat mass is measured by nuclear magnetic resonance (NMR).
(§2) Statistical analyses are performed with Everstat 6.0 by repeated measures two-way ANOVA and Dunnetts post-hoc analyses (glucose profile) and 1-way-ANOVA, followed by Dunnetts post-hoc test (body weight, body fat). Differences versus vehicle-treated DIO control mice are considered statistically significant at the p<0.05 level.
Female obese C57BL/6 mice were treated for 4 weeks twice daily subcutaneously with 50 μg/kg SEQ ID NO: 6, 50 μg/kg SEQ ID NO: 7 or vehicle. Body weight was recorded daily, and body fat content was determined before the start and after 4 weeks of treatment. […] These changes resulted from a decrease in body fat, as shown by the absolute changes in body fat content (Table 10, FIG. 3).
Female obese C57BL/6 mice were treated for 4 weeks twice daily subcutaneously with 50 μg/kg SEQ ID NO: 9 or vehicle. Body weight was recorded daily, and body fat content was determined before the start and after 4 weeks of treatment.

human glucagon receptor = biological target: T1, human glucagon receptor (Homo sapiens, UniProt P47871); experiment: cAMP response of HEK-293 cells stably expressing human glucagon receptor (HTRF); format: cell-based; conditions: Table 6; read-out: EC50 hGlucagon-R
T1 construct: expressed in transfected cells; host or cells: HEK-293
Procedure: (§3) For preparation, cells were split into T175 culture flasks and grown overnight to near confluency in medium (DMEM/10% FBS). Medium was then removed and cells washed with PBS lacking calcium and magnesium, followed by proteinase treatment with accutase (Sigma-Aldrich cat. no. A6964). Detached cells were washed and resuspended in assay buffer (1×HBSS; 20 mM HEPES, 0.1% BSA, 2 mM IBMX) and cellular density determined. They were then diluted to 400000 cells/ml and 25 μl-aliquots dispensed into the wells of 96-well plates. For measurement, 25 μl of test compound in assay buffer was added to the wells, followed by incubation for 30 minutes at room temperature. […] Potencies of peptidic compounds at the GLP-1, glucagon and GIP receptors were determined by exposing cells expressing human glucagon receptor (hGlucagon R), human GIP receptor (hGIP-R) or human GLP-1 receptor (hGLP-1R) to the listed compounds at increasing concentrations and measuring the formed cAMP as described in Methods.

[3] = Solubility testing in buffer (HPLC-UV); format: physicochemical
Procedure: Prior to the testing of solubility and stability of a peptide batch, its purity (HPLC-UV) was determined. […] Therefore, solutions from solid samples were prepared in different buffer systems with a concentration of 10 mg/mL compound based on the previously determined % purity. HPLC-UV was performed after 2 h of gentle agitation from the supernatant, which was obtained by 20 min of centrifugation at 4500 rpm. […] This analysis also served as starting point (t0) for the stability testing.

human GLP-1 receptor = biological target: T2, human GLP-1 receptor (Homo sapiens, UniProt P43220); experiment: cAMP response of HEK-293 cells stably expressing human GLP-1 receptor (HTRF); format: cell-based; conditions: Table 6; read-out: EC50 hGLP-1R
T2 construct: expressed in transfected cells; host or cells: HEK-293
Outline: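 HEK-293 cells stably expressing the receptor were taken up in HBSS/20 mM HEPES/0.1% BSA with 2 mM IBMX at 400000 cells/ml. They were exposed to increasing concentrations of peptide for 30 minutes at room temperature, and formed cAMP was measured by HTRF.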

human GIP receptor = biological target: T3, human GIP receptor (Homo sapiens, UniProt P48546); experiment: cAMP response of HEK-293 cells stably expressing human GIP receptor (HTRF); format: cell-based; conditions: Table 6; read-out: EC50 hGIP-R
T3 construct: expressed in transfected cells; host or cells: HEK-293
T3 sequence (P48546 22-466): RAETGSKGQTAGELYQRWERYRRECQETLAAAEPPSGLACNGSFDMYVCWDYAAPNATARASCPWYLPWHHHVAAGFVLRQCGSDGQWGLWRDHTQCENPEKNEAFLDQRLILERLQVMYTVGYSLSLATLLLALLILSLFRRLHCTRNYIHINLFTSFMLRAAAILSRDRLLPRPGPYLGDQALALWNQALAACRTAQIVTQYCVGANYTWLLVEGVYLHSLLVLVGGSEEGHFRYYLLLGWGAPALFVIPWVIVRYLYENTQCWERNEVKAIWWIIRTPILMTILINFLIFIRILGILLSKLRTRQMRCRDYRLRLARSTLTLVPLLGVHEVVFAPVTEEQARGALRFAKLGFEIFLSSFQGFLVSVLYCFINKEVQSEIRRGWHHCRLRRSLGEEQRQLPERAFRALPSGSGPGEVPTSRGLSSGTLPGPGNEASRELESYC
Procedure: as §3

[4] = Pharmacokinetic testing in mice, 1 mg/kg s.c. (LC/MS); format: in vivo; conditions: mouse, plasma, sc
Procedure: Mice were dosed 1 mg/kg subcutaneously (s.c.). The mice were sacrificed and blood samples were collected after 0.25, 0.5, 1, 2, 4, 8, 16 and 24 hours post application. Plasma samples were analyzed after protein precipitation via liquid chromatography mass spectrometry (LC/MS). PK parameters and half-life were calculated using WinonLin Version 5.2.1 (non-compartment model).

[5] = system: female diet-induced obese (DIO) C57BL/6 mice; experiment: Acute effect on blood glucose in fed female DIO C57BL/6 mice; format: in vivo; conditions: 50 μg/kg s.c., profile over 24 h
Procedure: as §1
The volume of administration is 5 mL/kg. The animals have access to water and their corresponding diet during the experiment. Blood glucose levels are measured at t=0 h, t=1 h, t=2 h, t=3 h, t=4 h, t=6 h and t=24 h (method: Accu-Check glucometer). Blood sampling is performed by tail incision without anaesthesia.
as §2, with “level. […]” for “level.”

[6] = pH 4.5, target concentration 10 mg/ml, read-out: solubility pH 4.5
[7] = pH 7.4, target concentration 10 mg/ml, read-out: solubility pH 7.4

T1 sequence (P47871 26-477): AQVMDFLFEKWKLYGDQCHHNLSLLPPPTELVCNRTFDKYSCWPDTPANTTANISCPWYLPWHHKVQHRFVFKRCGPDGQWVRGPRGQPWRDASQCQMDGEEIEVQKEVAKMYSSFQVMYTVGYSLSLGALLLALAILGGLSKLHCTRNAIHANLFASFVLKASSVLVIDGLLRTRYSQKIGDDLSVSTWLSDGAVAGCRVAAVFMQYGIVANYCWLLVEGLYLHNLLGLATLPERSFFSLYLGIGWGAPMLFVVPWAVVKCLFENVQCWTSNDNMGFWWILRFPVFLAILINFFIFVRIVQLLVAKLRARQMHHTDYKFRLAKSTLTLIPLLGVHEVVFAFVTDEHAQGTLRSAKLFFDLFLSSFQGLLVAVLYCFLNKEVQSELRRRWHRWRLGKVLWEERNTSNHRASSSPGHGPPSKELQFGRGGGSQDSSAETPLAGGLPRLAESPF
T2 sequence (P43220 24-463): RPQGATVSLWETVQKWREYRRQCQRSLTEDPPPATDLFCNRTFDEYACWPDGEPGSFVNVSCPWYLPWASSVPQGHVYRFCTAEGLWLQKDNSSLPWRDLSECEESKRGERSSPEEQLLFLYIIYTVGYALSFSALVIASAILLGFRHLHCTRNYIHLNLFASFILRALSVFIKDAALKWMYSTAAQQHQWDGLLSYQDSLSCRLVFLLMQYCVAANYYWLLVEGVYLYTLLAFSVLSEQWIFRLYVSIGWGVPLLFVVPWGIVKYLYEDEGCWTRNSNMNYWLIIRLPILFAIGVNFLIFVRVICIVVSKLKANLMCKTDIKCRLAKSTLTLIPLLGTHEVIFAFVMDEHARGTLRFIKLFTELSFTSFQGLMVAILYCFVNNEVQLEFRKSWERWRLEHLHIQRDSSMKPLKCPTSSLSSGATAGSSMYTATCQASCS

SMILES | Stability pH 4.5 [1] [% remaining peptide] | Stability pH 7.4 [1] [% remaining peptide] | daily body weight compared to vehicle DIO control mice [2] | Body fat change ([2]; Table 10 (Example 7)) [g] | Overall weight change ([2]; Table 10 (Example 7)) [g] | EC50 (human glucagon receptor) [nM] | solubility at 2 h [3, 6] [µg/mL] | solubility at 2 h [3, 7] [µg/mL] | EC50 (human GLP-1 receptor) [nM] | EC50 (human GIP receptor) [nM] | Cmax [4] [ng/mL] | half-life [4] [h] | blood glucose compared to DIO control [5] | Body fat change ([2]; Table 11 (Example 8)) [g] | Overall weight change ([2]; Table 11 (Example 8)) [g]
CCCCCCCCCCCCCCCC(=O)N[C@@H](CCC(=O)N[C@@H](CCC(=O)NCCCC[C@H](NC(=O)[C@H](CCC(N)=O)NC(=O)[C@H](CCCCN)NC(=O)[C@H](CO)NC(=O)[C@H](CC(C)C)NC(=O)[C@H](CC(=O)O)NC(=O)[C@H](CO)NC(=O)[C@@H](NC(=O)[C@H](Cc1ccccc1)NC(=O)[C@@H](NC(=O)CNC(=O)[C@H](Cc1c[nH]cn1)NC(=O)[C@@H](CO)NC(=O)[C@@H](N)Cc1c[nH]cn1)[C@@H](C)O)[C@@H](C)O)C(=O)N[C@@H](CCC(=O)O)C(=O)N[C@@H](CCC(=O)O)C(=O)N[C@@H](CCC(=O)O)C(=O)N[C@@H](C)C(=O)N[C@@H](C)C(=O)N[C@@H](CCCNC(=N)N)C(=O)N[C@@H](CC(C)C)C(=O)N[C@@H](Cc1ccccc1)C(=O)N[C@H](C(=O)N[C@@H](CCC(=O)O)C(=O)N[C@@H](Cc1c[nH]c2ccccc12)C(=O)N[C@@H](CC(C)C)C(=O)NC(C)(C)C(=O)N[C@@H](C)C(=O)NCC(=O)NCC(=O)N1CCC[C@H]1C(=O)N[C@@H](CO)C(=O)N[C@@H](CO)C(=O)NCC(=O)N[C@@H](C)C(=O)N1CCC[C@H]1C(=O)N1CCC[C@H]1C(=O)N1CCC[C@H]1C(=O)N[C@@H](CO)C(N)=O)[C@@H](C)CC)C(=O)O)C(=O)O [SEQ ID NO: 6, H-dSer-H-G-T-F-T-S-D-L-S-K-Q-K(γE-γE-x53)-E-E-E-A-A-R-L-F-I-E-W-L-Aib-A-G-G-P-S-S-G-A-P-P-P-S-NH2] | 100.0 | 92.0 | decrease in daily body weight | -4.64 ± 0.4 | -6.08 ± 0.6 | 0.0177 | > 8000 | > 8000 | 0.0026 | 1.54 |  |  |  |  | 
CCCCCCCCCCCCCCCC(=O)N[C@@H](CCC(=O)N[C@@H](CCC(=O)NCCCC[C@H](NC(=O)[C@H](CCC(N)=O)NC(=O)[C@H](CCCCN)NC(=O)[C@H](CO)NC(=O)[C@H](CC(C)C)NC(=O)[C@H](CC(=O)O)NC(=O)[C@H](CO)NC(=O)[C@@H](NC(=O)[C@H](Cc1ccccc1)NC(=O)[C@@H](NC(=O)CNC(=O)[C@H](Cc1c[nH]cn1)NC(=O)[C@@H](CO)NC(=O)[C@@H](N)Cc1c[nH]cn1)[C@@H](C)O)[C@@H](C)O)C(=O)N[C@@H](CC(=O)O)C(=O)N[C@@H](CCC(=O)O)C(=O)N[C@@H](CCC(=O)O)C(=O)N[C@@H](C)C(=O)N[C@@H](C)C(=O)N[C@@H](CCCNC(=N)N)C(=O)N[C@@H](CC(C)C)C(=O)N[C@@H](Cc1ccccc1)C(=O)N[C@H](C(=O)N[C@@H](CCC(=O)O)C(=O)N[C@@H](Cc1c[nH]c2ccccc12)C(=O)N[C@@H](CC(C)C)C(=O)NC(C)(C)C(=O)N[C@@H](C)C(=O)NCC(=O)NCC(=O)N1CCC[C@H]1C(=O)N[C@@H](CO)C(=O)N[C@@H](CO)C(=O)NCC(=O)N[C@@H](C)C(=O)N1CCC[C@H]1C(=O)N1CCC[C@H]1C(=O)N1CCC[C@H]1C(=O)N[C@@H](CO)C(N)=O)[C@@H](C)CC)C(=O)O)C(=O)O [SEQ ID NO: 7, H-dSer-H-G-T-F-T-S-D-L-S-K-Q-K(γE-γE-x53)-D-E-E-A-A-R-L-F-I-E-W-L-Aib-A-G-G-P-S-S-G-A-P-P-P-S-NH2] | 100.0 | 90.0 | decrease in daily body weight | -5.12 ± 0.6 | -7.25 ± 0.7 | 0.009 | 2200 (≈ 479 µM) | > 8000 | 0.0015 | 0.908 |  |  |  |  | 
CCCCCCCCCCCCCCCC(=O)N[C@@H](CCC(=O)N[C@@H](CCC(=O)NCCCC[C@H](NC(=O)[C@H](CCC(N)=O)NC(=O)[C@H](CCCCN)NC(=O)[C@H](CO)NC(=O)[C@H](CC(C)C)NC(=O)[C@H](CC(=O)O)NC(=O)[C@H](CO)NC(=O)[C@@H](NC(=O)[C@H](Cc1ccccc1)NC(=O)[C@@H](NC(=O)CNC(=O)[C@H](CCC(N)=O)NC(=O)[C@@H](CO)NC(=O)[C@@H](N)Cc1c[nH]cn1)[C@@H](C)O)[C@@H](C)O)C(=O)N[C@@H](CC(=O)O)C(=O)N[C@@H](CCC(=O)O)C(=O)N[C@@H](CCC(=O)O)C(=O)N[C@@H](C)C(=O)N[C@@H](C)C(=O)N[C@@H](CCCNC(=N)N)C(=O)N[C@@H](CC(C)C)C(=O)N[C@@H](Cc1ccccc1)C(=O)N[C@H](C(=O)N[C@@H](CCC(=O)O)C(=O)N[C@@H](Cc1c[nH]c2ccccc12)C(=O)N[C@@H](CC(C)C)C(=O)NC(C)(C)C(=O)N[C@@H](C)C(=O)NCC(=O)NCC(=O)N1CCC[C@H]1C(=O)N[C@@H](CO)C(=O)N[C@@H](CO)C(=O)NCC(=O)N[C@@H](C)C(=O)N1CCC[C@H]1C(=O)N1CCC[C@H]1C(=O)N1CCC[C@H]1C(=O)N[C@@H](CO)C(N)=O)[C@@H](C)CC)C(=O)O)C(=O)O [SEQ ID NO: 9, H-dSer-Q-G-T-F-T-S-D-L-S-K-Q-K(γE-γE-x53)-D-E-E-A-A-R-L-F-I-E-W-L-Aib-A-G-G-P-S-S-G-A-P-P-P-S-NH2] | 77.0 | 93.0 | decrease in daily body weight |  |  | 0.0118 | 2200 (≈ 480 µM) | > 8000 | 0.0018 | 3.6 | 6560 | 3.8 | decrease in blood glucose | -5.65 ± 0.9 | -6.56 ± 1.0
